Source: the NIST ThermoML archive (doi:10.1016/j.jct.2011.11.014)
Numbers after ± are expanded uncertainties.

Assay: mn = molality of the nth substance listed, in mol/kg
Conditions: 101.3 kPa, Liquid; for speed of sound: Sing-around technique in a fixed-path interferometer; for mass density: Vibrating tube method

CCOC(=O)CC(=O)[O-].[K+] [potassium 3-ethoxy-3-oxopropanoate] + O
Conditions	mass density [kg/m3]	speed of sound [m/s]
288.15 K, m1 = 0.0116	999.92 ± 2	1468.2 ± 2.2
288.15 K, m1 = 0.0175	1000.34 ± 2	1469 ± 2.2
288.15 K, m1 = 0.0352	1001.57 ± 2	1471.2 ± 2.2
288.15 K, m1 = 0.0453	1002.29 ± 2	1472.6 ± 2.2
288.15 K, m1 = 0.0579	1003.14 ± 2	1474.2 ± 2.2
288.15 K, m1 = 0.1204	1007.45 ± 2	1482.2 ± 2.2
288.15 K, m1 = 0.18	1011.47 ± 2	1489.7 ± 2.2
288.15 K, m1 = 0.2369	1015.22 ± 2	1496.6 ± 2.2
288.15 K, m1 = 0.3076	1019.83 ± 2	1505.1 ± 2.2
293.15 K, m1 = 0.0116	999.013 ± 2	1484.1 ± 2.2
293.15 K, m1 = 0.0175	999.423 ± 2	1484.9 ± 2.2
293.15 K, m1 = 0.0352	1000.64 ± 2	1487 ± 2.2
293.15 K, m1 = 0.0453	1001.35 ± 2	1488.3 ± 2.2
293.15 K, m1 = 0.0579	1002.19 ± 2	1489.8 ± 2.2
293.15 K, m1 = 0.1204	1006.44 ± 2	1497.2 ± 2.2
293.15 K, m1 = 0.18	1010.41 ± 2	1504.2 ± 2.2
293.15 K, m1 = 0.2369	1014.11 ± 2	1510.6 ± 2.2
293.15 K, m1 = 0.3076	1018.65 ± 2	1518.7 ± 2.2
298.15 K, m1 = 0.0116	997.84 ± 2	1498.2 ± 2.2
298.15 K, m1 = 0.0175	998.247 ± 2	1499 ± 2.2
298.15 K, m1 = 0.0352	999.442 ± 2	1500.9 ± 2.2
298.15 K, m1 = 0.0453	1000.15 ± 2	1502.1 ± 2.2
298.15 K, m1 = 0.0579	1000.98 ± 2	1503.5 ± 2.2
298.15 K, m1 = 0.1204	1005.18 ± 2	1510.4 ± 2.2
298.15 K, m1 = 0.18	1009.1 ± 2	1516.9 ± 2.2
298.15 K, m1 = 0.2369	1012.76 ± 2	1523 ± 2.2
298.15 K, m1 = 0.3076	1017.25 ± 2	1530.5 ± 2.2
303.15 K, m1 = 0.0116	996.433 ± 2	1510.5 ± 2.2
303.15 K, m1 = 0.0175	996.835 ± 2	1511.2 ± 2.2
303.15 K, m1 = 0.0352	998.02 ± 2	1513 ± 2.2
303.15 K, m1 = 0.0453	998.716 ± 2	1514.1 ± 2.2
303.15 K, m1 = 0.0579	999.538 ± 2	1515.4 ± 2.2
303.15 K, m1 = 0.1204	1003.7 ± 2	1521.9 ± 2.2
303.15 K, m1 = 0.18	1007.58 ± 2	1528 ± 2.2
303.15 K, m1 = 0.2369	1011.19 ± 2	1533.6 ± 2.2
303.15 K, m1 = 0.3076	1015.64 ± 2	1540.6 ± 2.2
308.15 K, m1 = 0.0116	994.811 ± 2	1521 ± 2.2
308.15 K, m1 = 0.0175	995.206 ± 2	1521.7 ± 2.2
308.15 K, m1 = 0.0352	996.379 ± 2	1523.4 ± 2.2
308.15 K, m1 = 0.0453	997.071 ± 2	1524.4 ± 2.2
308.15 K, m1 = 0.0579	997.885 ± 2	1525.7 ± 2.2
308.15 K, m1 = 0.1204	1002 ± 2	1531.8 ± 2.2
308.15 K, m1 = 0.18	1005.85 ± 2	1537.4 ± 2.2
308.15 K, m1 = 0.2369	1009.43 ± 2	1542.7 ± 2.2
308.15 K, m1 = 0.3076	1013.83 ± 2	1549.1 ± 2.2
313.15 K, m1 = 0.0116	992.986 ± 2	1530 ± 2.1
313.15 K, m1 = 0.0175	993.379 ± 2	1530.7 ± 2.1
313.15 K, m1 = 0.0352	994.542 ± 2	1532.2 ± 2.1
313.15 K, m1 = 0.0453	995.228 ± 2	1533.2 ± 2.1
313.15 K, m1 = 0.0579	996.034 ± 2	1534.4 ± 2.1
313.15 K, m1 = 0.1204	1000.12 ± 2	1540.1 ± 2.1
313.15 K, m1 = 0.18	1003.93 ± 2	1545.4 ± 2.1
313.15 K, m1 = 0.2369	1007.47 ± 2	1550.3 ± 2.1
313.15 K, m1 = 0.3076	1011.84 ± 2	1556.3 ± 2.2

COC(=O)CC(=O)[O-].[K+] [potassium 3-methoxy-3-oxopropanoate] + O
Conditions	mass density [kg/m3]	speed of sound [m/s]
288.15 K, m1 = 0.0128	1000.03 ± 0.14	1468.1 ± 2.2
288.15 K, m1 = 0.0148	1000.18 ± 0.13	1468.3 ± 2.2
288.15 K, m1 = 0.0189	1000.47 ± 0.13	1468.8 ± 2.2
288.15 K, m1 = 0.0253	1000.94 ± 0.13	1469.6 ± 2.2
288.15 K, m1 = 0.0316	1001.39 ± 0.13	1470.3 ± 2.2
288.15 K, m1 = 0.0444	1002.3 ± 0.13	1471.8 ± 2.2
288.15 K, m1 = 0.0512	1002.81 ± 0.13	1472.4 ± 2.2
288.15 K, m1 = 0.0637	1003.7 ± 0.13	1474 ± 2.2
288.15 K, m1 = 0.0836	1005.11 ± 0.14	1476 ± 2.2
288.15 K, m1 = 0.1286	1008.32 ± 0.14	1481.1 ± 2.2
288.15 K, m1 = 0.1868	1012.39 ± 0.14	1487.4 ± 2.2
288.15 K, m1 = 0.2644	1017.68 ± 0.14	1495.4 ± 2.2
288.15 K, m1 = 0.3285	1022.02 ± 0.14	1502.2 ± 2.2
288.15 K, m1 = 0.3591	1024 ± 0.14	1505 ± 2.2
293.15 K, m1 = 0.0128	999.122 ± 0.17	1484 ± 2.2
293.15 K, m1 = 0.0148	999.272 ± 0.14	1484.2 ± 2.2
293.15 K, m1 = 0.0189	999.553 ± 0.14	1484.7 ± 2.2
293.15 K, m1 = 0.0253	1000.02 ± 0.14	1485.4 ± 2.2
293.15 K, m1 = 0.0316	1000.47 ± 0.14	1486.1 ± 2.2
293.15 K, m1 = 0.0444	1001.37 ± 0.13	1487.4 ± 2.2
293.15 K, m1 = 0.0512	1001.87 ± 0.14	1488.2 ± 2.2
293.15 K, m1 = 0.0637	1002.74 ± 0.14	1489.5 ± 2.2
293.15 K, m1 = 0.0836	1004.14 ± 0.14	1491.5 ± 2.2
293.15 K, m1 = 0.1286	1007.31 ± 0.14	1496.2 ± 2.2
293.15 K, m1 = 0.1868	1011.34 ± 0.14	1502 ± 2.2
293.15 K, m1 = 0.2644	1016.57 ± 0.14	1509.6 ± 2.2
293.15 K, m1 = 0.3285	1020.84 ± 0.14	1516.1 ± 2.2
293.15 K, m1 = 0.3591	1022.81 ± 0.14	1518.6 ± 2.2
298.15 K, m1 = 0.0128	997.951 ± 0.16	1498.1 ± 2.2
298.15 K, m1 = 0.0148	998.099 ± 0.14	1498.4 ± 2.2
298.15 K, m1 = 0.0189	998.377 ± 0.14	1498.8 ± 2.2
298.15 K, m1 = 0.0253	998.84 ± 0.14	1499.4 ± 2.2
298.15 K, m1 = 0.0316	999.281 ± 0.14	1500.1 ± 2.2
298.15 K, m1 = 0.0444	1000.17 ± 0.14	1501.3 ± 2.2
298.15 K, m1 = 0.0512	1000.67 ± 0.14	1502 ± 2.2
298.15 K, m1 = 0.0637	1001.53 ± 0.14	1503.3 ± 2.2
298.15 K, m1 = 0.0836	1002.91 ± 0.14	1505.1 ± 2.2
298.15 K, m1 = 0.1286	1006.05 ± 0.14	1509.5 ± 2.2
298.15 K, m1 = 0.1868	1010.04 ± 0.14	1514.9 ± 2.2
298.15 K, m1 = 0.2644	1015.21 ± 0.14	1522.1 ± 2.2
298.15 K, m1 = 0.3285	1019.45 ± 0.14	1528 ± 2.2
298.15 K, m1 = 0.3591	1021.39 ± 0.14	1530.5 ± 2.2
303.15 K, m1 = 0.0128	996.543 ± 0.17	1510.4 ± 2.2
303.15 K, m1 = 0.0148	996.691 ± 0.14	1510.6 ± 2.2
303.15 K, m1 = 0.0189	996.967 ± 0.14	1511 ± 2.2
303.15 K, m1 = 0.0253	997.423 ± 0.14	1511.6 ± 2.2
303.15 K, m1 = 0.0316	997.862 ± 0.14	1512.2 ± 2.2
303.15 K, m1 = 0.0444	998.743 ± 0.14	1513.3 ± 2.2
303.15 K, m1 = 0.0512	999.236 ± 0.14	1514 ± 2.2
303.15 K, m1 = 0.0637	1000.1 ± 0.14	1515.2 ± 2.2
303.15 K, m1 = 0.0836	1001.46 ± 0.14	1517 ± 2.2
303.15 K, m1 = 0.1286	1004.57 ± 0.14	1521.1 ± 2.2
303.15 K, m1 = 0.1868	1008.52 ± 0.14	1526.2 ± 2.2
303.15 K, m1 = 0.2644	1013.64 ± 0.14	1532.9 ± 2.2
303.15 K, m1 = 0.3285	1017.84 ± 0.15	1538.5 ± 2.2
303.15 K, m1 = 0.3591	1019.76 ± 0.14	1540.8 ± 2.2
308.15 K, m1 = 0.0128	994.92 ± 0.17	1520.9 ± 2.2
308.15 K, m1 = 0.0148	995.066 ± 0.15	1521.2 ± 2.2
308.15 K, m1 = 0.0189	995.341 ± 0.15	1521.5 ± 2.2
308.15 K, m1 = 0.0253	995.793 ± 0.14	1522.1 ± 2.2
308.15 K, m1 = 0.0316	996.226 ± 0.14	1522.7 ± 2.2
308.15 K, m1 = 0.0444	997.101 ± 0.14	1523.7 ± 2.2
308.15 K, m1 = 0.0512	997.589 ± 0.15	1524.4 ± 2.2
308.15 K, m1 = 0.0637	998.449 ± 0.14	1525.5 ± 2.2
308.15 K, m1 = 0.0836	999.794 ± 0.14	1527.1 ± 2.2
308.15 K, m1 = 0.1286	1002.88 ± 0.15	1531 ± 2.2
308.15 K, m1 = 0.1868	1006.79 ± 0.15	1535.8 ± 2.2
308.15 K, m1 = 0.2644	1011.88 ± 0.15	1542.1 ± 2.2
308.15 K, m1 = 0.3285	1016.04 ± 0.15	1547.4 ± 2.2
308.15 K, m1 = 0.3591	1017.95 ± 0.15	1549.5 ± 2.2
313.15 K, m1 = 0.0128	993.096 ± 0.15	1530 ± 2.1
313.15 K, m1 = 0.0148	993.243 ± 0.15	1530.2 ± 2.1
313.15 K, m1 = 0.0189	993.515 ± 0.15	1530.5 ± 2.1
313.15 K, m1 = 0.0253	993.962 ± 0.15	1531.1 ± 2.1
313.15 K, m1 = 0.0316	994.391 ± 0.15	1531.6 ± 2.1
313.15 K, m1 = 0.0444	995.26 ± 0.15	1532.6 ± 2.1
313.15 K, m1 = 0.0512	995.745 ± 0.15	1533.2 ± 2.1
313.15 K, m1 = 0.0637	996.599 ± 0.15	1534.3 ± 2.1
313.15 K, m1 = 0.0836	997.933 ± 0.15	1535.8 ± 2.1
313.15 K, m1 = 0.1286	1001 ± 0.15	1539.5 ± 2.1
313.15 K, m1 = 0.1868	1004.88 ± 0.15	1543.9 ± 2.1
313.15 K, m1 = 0.2644	1009.93 ± 0.15	1549.9 ± 2.2
313.15 K, m1 = 0.3285	1014.06 ± 0.15	1554.9 ± 2.2
313.15 K, m1 = 0.3591	1015.96 ± 0.15	1556.8 ± 2.2
